Results on 13 molecules are retold here after ChEMBL document CHEMBL1201862, “PubChem BioAssay data set” (2004).

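Test compounds were applied to cells in 96-well plates for 48 hours at 5 doses. GI50 marks 50% less growth.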 The source made the active and inactive calls. Cut-off read from the data, not from the text of the source: active = GI50 up to about 1.1 µM and inactive = higher. Some results are limits rather than exact numbers.

Holding throughout (assay): NCI tumour cell line growth inhibition, 48 h
Assay [1] deals with A549.
Assay [2] deals with CAKI-1.
The subject of assay [3] is HOP-92.
For assay [4], the system named is LOX IMVI.
The test system of assay [5] is M14.
In assay [6] the test system is MCF7.
Assay [7] deals with MDA-N.
Assay [8] has as its system OVCAR-4.
The subject of assay [9] is OVCAR-8.
In assay [10] the test system is PC-3.
The subject of assay [11] is RPMI-8226.
The test system of assay [12] is SF-539.
In assay [13] the test system is SK-MEL-2.
The subject of assay [14] is SK-OV-3.
Assay [15] relates to SN12C.
Assay [16] deals with SNB-75.
Assay [17] has as its system TK-10.
Assay [18] relates to U-251.
Assay [19] concerns XF498.
For assay [20], the system named is DLD-1.

In the case of `O=C1C(Cl)=C(N2CCN(CCOCCO)CC2)C(=O)c2ccccc21`, the GI50 was 18.7 µM (inactive) in assay [1]; 15.7 µM (inactive) in assay [2]; 1.49 µM (inactive) in assay [3]; 6.4 µM (inactive) in [4]; 9.29 µM (inactive) in assay [5]; 3.56 µM (inactive) in [6]. The GI50 in assay [7] is 2.18 µM (inactive); in assay [8] it was 2.19 µM (inactive); in assay [9] it was 14.9 µM (inactive); in [10] it was 18 µM (inactive); in assay [11] it was 3.45 µM (inactive); in [12], 18.9 µM (inactive). Moreover, the GI50 in assay [13] was 8.89 µM (inactive); in [14] it was 15.3 µM (inactive); in assay [15], 15.2 µM (inactive); in assay [16], 14.2 µM (inactive); in assay [17] it was 20.2 µM (inactive); in assay [18], 17.3 µM (inactive). In assay [19], the GI50 is 2.55 µM (inactive).

With `O=C1CC(C[C@H](O)C2CCCCC2O)CC(=O)N1Cc1ccccc1` (stereo not given in full), the GI50 in assay [1], in assay [2], in assay [20], in assay [4], in assay [5] and in [8] was > 100 µM (inactive) each time. Moreover, the GI50 in [9], in [12], in assay [13], in [14], in assay [15] and in [16] was > 100 µM (inactive) in each case. Further, the GI50 in [17], in assay [18] and in [19] was > 100 µM (inactive) throughout.

`CN(C)CCNC(=O)c1cccc2nc3ccc4ccccc4c3nc12`: the GI50 is 0.0481 µM (active) in [1]; 0.0518 µM (active) in assay [2]; 0.047 µM (active) in assay [20]; 0.0957 µM (active) in assay [3]; 0.0726 µM (active) in assay [4]; 0.2 µM (active) in assay [5]. The GI50 is 0.114 µM (active) in [8]; 0.0574 µM (active) in assay [9]; 0.0652 µM (active) in assay [12]; 0.177 µM (active) in assay [13]; 0.144 µM (active) in assay [14]; 0.0478 µM (active) in [15]. Also, the values for the GI50 in assay [16], in assay [17] and in assay [18] were 0.12 µM (active), 0.139 µM (active) and 0.112 µM (active), respectively.

`CCOC(=O)/C(=C\c1ccccc1)C(=O)CCN1CCOCC1`: the GI50 in assay [1] is 22.4 µM (inactive); in assay [2], 4.49 µM (inactive); in assay [20], 2.43 µM (inactive); in [3], 5.86 µM (inactive); in [4], 2.8 µM (inactive); in assay [5] it was 6.67 µM (inactive). The GI50 in assay [6] was 5.2 µM (inactive); in assay [7] it was 6.03 µM (inactive); in assay [8], 12.4 µM (inactive); in [9], 4.06 µM (inactive); in [10], 12.2 µM (inactive); in assay [11], 2.07 µM (inactive). The GI50 in [12] was 7.26 µM (inactive); in assay [13] it was 17.8 µM (inactive); in assay [14], 23 µM (inactive); in assay [15] it was 8.65 µM (inactive); in assay [16], 16.4 µM (inactive); in assay [17], 6.5 µM (inactive). The GI50 in assay [18] was 8.55 µM (inactive).

On to `c1ccc2c(c1)oc1ccc3nsnc3c12`, for which the GI50 in assay [1] is > 100 µM (inactive); in [2], > 100 µM (inactive); in assay [20], > 100 µM (inactive); in [3], 45.7 µM (inactive); in assay [4], > 10 µM (inactive); in [5] it was > 100 µM (inactive). Further, the GI50 in assay [8] was > 100 µM (inactive); in assay [12], > 100 µM (inactive); in assay [13], > 100 µM (inactive); in assay [14], > 100 µM (inactive); in assay [16], 53.3 µM (inactive); in [17], > 10 µM (inactive).

As for `O=C1c2ccccc2C2(Br)C(=O)c3ccccc3C12` (stereo not given), the GI50 in assay [1] was > 100 µM (inactive); in [2], > 100 µM (inactive); in assay [20], > 100 µM (inactive); in [3], > 100 µM (inactive); in assay [4], 11.1 µM (inactive); in [5] it was > 100 µM (inactive). Besides, the GI50 in [8], in assay [9], in assay [11], in assay [12], in [13] and in [14] was > 100 µM (inactive) in each case. For the same molecule, the GI50 in assay [15], in assay [16], in assay [17] and in assay [18] was > 100 µM (inactive) in each case.

On to `O=C(c1ccc(Cl)cc1)N(C(=S)N1CCN(c2ccccc2)CC1)c1ccccc1`, for which the GI50 in assay [1], in assay [2], in assay [20], in assay [3], in assay [4] and in assay [5] was > 100 µM (inactive) each time. The GI50 in assay [8], in assay [9], in [11], in assay [12], in assay [13] and in assay [14] was > 100 µM (inactive) throughout. The GI50 in assay [15], in assay [16], in [17] and in [18] was > 100 µM (inactive) each time.

For the molecule `CSc1ccc2c(cc1=O)C(NC(=O)c1cc(O)c(OC(=O)O)c(O)c1)CCc1cc(O)c(O)c(O)c1-2` (stereo not given), the GI50 in assay [1] was 19.5 µM (inactive); in assay [2], 19.3 µM (inactive); in assay [20], 18.5 µM (inactive); in [3], 22.8 µM (inactive); in assay [4] it was 12.9 µM (inactive); in assay [5], 12.1 µM (inactive). For the same molecule, the GI50 was 20.2 µM (inactive) in assay [8]; 28.9 µM (inactive) in assay [9]; 14.5 µM (inactive) in assay [11]; 26.5 µM (inactive) in [12]; > 89.9 µM (inactive) in assay [13]; > 89.9 µM (inactive) in [14]. Also, the GI50 is 13.3 µM (inactive) in assay [15], 32.7 µM (inactive) in assay [16], > 89.9 µM (inactive) in assay [17] and 16 µM (inactive) in assay [18].

Regarding `O=C(CC(=O)C(=O)CC(=O)OCc1ccccc1)OCc1ccccc1`, the GI50 in assay [1] was 60.8 µM (inactive); in [2] it was > 100 µM (inactive); in [20] it was 60.8 µM (inactive); in assay [3], 58.1 µM (inactive); in [5], > 100 µM (inactive); in assay [8], 50.5 µM (inactive). For the same molecule, the GI50 in assay [9] was > 100 µM (inactive); in [11] it was 45.8 µM (inactive); in assay [12] it was 53.5 µM (inactive); in [13], > 100 µM (inactive); in [14], > 100 µM (inactive); in assay [15] it was 57.1 µM (inactive). For the same molecule, the figures for the GI50 in assay [16], in assay [17] and in assay [18] were 61.5 µM (inactive), > 100 µM (inactive) and 50.9 µM (inactive), respectively.

With `Nc1ccccc1C(=O)CCC1C(=O)NC(=S)NC1=O`, the GI50 is > 100 µM (inactive) in assay [1]; > 100 µM (inactive) in assay [2]; > 100 µM (inactive) in [20]; > 91.4 µM (inactive) in assay [3]; > 100 µM (inactive) in [4]; > 100 µM (inactive) in [5]. Besides, the GI50 in assay [6], in [7], in assay [8], in assay [9], in assay [10] and in [11] was > 100 µM (inactive) in each case. The GI50 is > 100 µM (inactive) in [12]; > 100 µM (inactive) in assay [13]; > 100 µM (inactive) in assay [14]; 43.8 µM (inactive) in assay [16]; > 100 µM (inactive) in [17]; > 100 µM (inactive) in assay [18].

With `O=C(Nc1nc2ncn(CC(COc3ccccc3)OC(=O)c3ccccc3)c2c(=O)[nH]1)c1ccccc1` (stereo not given), the GI50 in assay [1], in assay [2], in assay [4], in [5], in [8] and in assay [9] was > 100 µM (inactive) in each case. The GI50 in assay [11], in [12], in [13], in assay [14], in assay [15] and in assay [16] was > 100 µM (inactive) in each case. For the same molecule, the GI50 in assay [18] and in [19] was > 100 µM (inactive) each time.

`COC(=O)C1(C(C)C)CCc2c(OC)ccc(OC)c2C1=O` (stereo not given): the GI50 in assay [1] is > 100 µM (inactive); in assay [2] it was > 100 µM (inactive); in assay [20] it was > 100 µM (inactive); in [4] it was > 100 µM (inactive); in assay [5] it was > 100 µM (inactive); in assay [8], 96.6 µM (inactive). The GI50 in assay [9] was > 100 µM (inactive); in assay [11] it was 93.3 µM (inactive); in assay [12], > 100 µM (inactive); in assay [13] it was > 100 µM (inactive); in [14], > 100 µM (inactive); in [15], > 100 µM (inactive). Also, the GI50 in assay [17], in assay [18] and in assay [19] was > 100 µM (inactive) in each case.

For the molecule `CC(Cl)(/C=C/Cl)C(Cl)/C=C/C(Cl)(CCl)CBr` (stereo not given), the GI50 was 15.2 µM (inactive) in [1]; 12.2 µM (inactive) in [2]; 2.47 µM (inactive) in assay [20]; 2.07 µM (inactive) in assay [3]; 1.66 µM (inactive) in assay [4]; 2.54 µM (inactive) in [5]. Further, the GI50 in assay [8] is 3.05 µM (inactive); in assay [9] it was 1.71 µM (inactive); in assay [11], 1.66 µM (inactive); in assay [13], 3.82 µM (inactive); in [14], 17.1 µM (inactive); in [15], 3.18 µM (inactive). Moreover, the GI50 was 3.17 µM (inactive) in assay [16], 7.45 µM (inactive) in assay [17] and 3.72 µM (inactive) in assay [18].
